Laboratory results reported in patent US9783490B2, “Antimicrobial compounds, their synthesis and applications thereof” (The Secretary of State for Health, priority 2012, dated 2017).
Read-outs that look alike come from different tables or passages of the source.

What was measured:
[1] = test system: S. aureus (MTCC 737); experiment: Minimum Inhibitory Concentration, micro-dilution broth; assay type: cell-based, Staphylococcus aureus; conditions: for Minimum Inhibitory Concentration S. aureus: Drug sensitive bacteria
Procedure: (§1) Microorganisms and Culture Conditions: Bacterial strains, S. aureus (MTCC 737) and E. coli (MTCC 443) are purchased from MTCC (Chandigarh, India). MRSA (ATCC 33591), Pseudomonas aeruginosa (ATCC 4676), […]-lactamase producing and drug-resistant Klebsiella pneumonia (ATCC700603), Enterococcus faecium (ATCC 19634) and vancomycin resistant Enterococcus faecium (ATCC 51559) are obtained from ATCC (Rockville, Md., USA).
(§2) E. coli is cultured in Luria Bertani broth (10 g of tryptone, 5 g of yeast extract, and 10 g of NaCl in 1000 mL of sterile distilled water (pH −7) while S. aureus, Pseudomonas aeruginosa (ATCC 4676) and MRSA are grown in Yeast-dextrose broth (1 g of beef extract, 2 g of yeast extract, 5 g of peptone and 5 g of NaCl in 1000 mL of sterile distilled water). For all Enterococcus faecium, Brain Heart Infusion broth (BHI) is used. For solid media 5% agar was used along with above mentioned composition. K. pneumonia was grown in nutrient media (3 g of beef extract and 5 g of peptone in 1000 mL of sterile distilled water). The bacterial samples were freeze dried and stored at −80° C. 5 μl of these stocks were added to 3 mL of the nutrient broth and the culture was grown for 6 h at 37° C. prior to the experiments.
(§3) Antibacterial activity is reported as Minimum Inhibitory Concentration (MIC), i.e. the lowest concentration of the antimicrobial agent that will inhibit the growth of a microorganism after overnight incubation. Water-soluble ACK, NCK and BCK series of compounds are assayed in a modified micro-dilution broth format. Stock solutions are made by serially diluting the compounds using autoclaved Millipore water. Bacteria, to be tested are grown for about 6 hrs in the suitable media containing ˜10^9 cfu/mL (determined through dilution plate technique by spread plate method), which is then diluted to 10^5 cfu/mL using nutrient media. 50 μL of serially diluted compound is added to a 96 well plate containing 150 μL bacterial solutions. Two controls are made; one containing 150 μL of media and 50 μL of compound and the other containing 200 μL of bacterial solution. […] MIC value is determined by taking the average of triplicate O.D. values for each concentration and plotting it against concentration using Origin Pro 8.0 software. The data is then subjected to sigmoidal fitting. From the curve, MIC value is determined, as the point in the curve where the O.D. is similar to that of control having no bacteria. The MIC values and errors of independent experiments are reported as average and standard deviation of triplicates.

[2] = test system: Enterococcus faecium (ATCC 19634); experiment: as above; assay type: cell-based; conditions: for Minimum Inhibitory Concentration E. faecium: Drug sensitive bacteria
Procedure: as §1, §2, §3

[3] = test system: Pseudomonas aeruginosa (ATCC 4676); experiment: as above; assay type: cell-based; conditions: for Minimum Inhibitory Concentration P. aeruginosa: Drug sensitive bacteria
Procedure: as §1, §2, §3

[4] = test system: drug-resistant Klebsiella pneumonia (ATCC700603); experiment: as above; assay type: cell-based; conditions: for Minimum Inhibitory Concentration K. pneumonia: Drug resistant bacteria
Procedure: as §1, §2, §3

[5] = test system: vancomycin resistant Enterococcus faecium (ATCC 51559); experiment: as above; assay type: cell-based; conditions: for Minimum Inhibitory Concentration VRE: Drug resistant bacteria
Procedure: as §1, §2, §3

[6] = test system: E. coli (MTCC 443); experiment: as above; assay type: cell-based, Escherichia coli; conditions: for Minimum Inhibitory Concentration E. coli: Drug sensitive bacteria
Procedure: as §1, §2, §3

[7] = test system: MRSA (ATCC 33591); experiment: as above; assay type: cell-based, Methicillin resistant S. aureus; conditions: for Minimum Inhibitory Concentration MRSA: Drug resistant bacteria
Procedure: as §1, §2, §3

[8] = test system: human RBCs; experiment: Haemolytic activity (HC50); assay type: cell-based
Procedure: Erythrocytes are isolated from freshly drawn, heparinized human blood and re-suspended to 5 vol % in PBS (pH 7.4). In a 96-well microtiter plate, 150 μl of erythrocyte suspension is added to 50 μl of serially diluted compound. Two controls are made, one without compound and other with 50 μl of 1 vol % solution of Triton X-100. The plate is incubated for about 1 hr at a temperature of about 37° C. The plate is then centrifuged at 3,500 rpm for about 5 min, 100 μl of the supernatant from each well is transferred to a fresh microtiter plate, and absorbance at 540 nm is measured. Percentage of hemolysis is determined as (A−A0)/(Atotal−A0)×100, where A is the absorbance of the test well, A0 the absorbance of the negative controls (without compound), and A total the absorbance of 100% hemolysis wells (with Triton X-100), when absorbance is read at 540 nm.
Toxicity studies of the compounds are carried out on freshly drawn human RBCs. Toxicity of the antimicrobial compounds of the present disclosure is defined by their HC50 values illustrated in Table 3, i.e. the concentration of compound at which 50% of the blood cells are lysed. Haemolytic studies conducted herein illustrates that the antimicrobial compounds provided by the instant disclosure are selective towards drug sensitive bacteria and drug resistant bacteria over human RBCs, thus establishing the non-toxicity of the present compounds.

[9] = concentration at which 50% of the blood cells are lysed, human RBCs

Compound	Minimum Inhibitory Concentration S. aureus [1] [µg/mL]	Minimum Inhibitory Concentration E. faecium [2] [µg/mL]	MIC value against P. aeruginosa [3]	Minimum Inhibitory Concentration P. aeruginosa [3] [µg/mL]	Minimum Inhibitory Concentration K. pneumonia [4] [µg/mL]	Minimum Inhibitory Concentration VRE [5] [µg/mL]	Minimum Inhibitory Concentration E. coli [6] [µg/mL]	Minimum Inhibitory Concentration MRSA [7] [µg/mL]	HC50 [8, 9] [µg/mL]	MIC value against S. aureus [1]	MIC value against E. faecium [2]	MIC value against K. pneumonia [4]	MIC value against vancomycin-resistant E. faecium [5]	MIC value against E. coli [6]	MIC value against methicillin-resistant S. aureus [7]	HC50 [8] [µg/mL]
CCN(Cc1c2ccccc2c(Cl)c2ccccc12)C(=O)C(N)CCCCN.O=C(O)C(F)(F)F (centres unmarked) [ACK-2, Lys-N-ethyl-10-Aminomethyl-9-chloroanthracene trifluoroacetate]	11	13.6	about 4 μg/ml	4	31	7.2	25	21	118							
CCCCN(Cc1c2ccccc2c(Cl)c2ccccc12)C(=O)C(N)CCCCN.O=C(O)C(F)(F)F (centres unmarked) [ACK-4, Lys-N-butyl-10-Aminomethyl-9-chloroanthracene trifluoroacetate]	5.3	4.5	~1.9 µg/mL	1.9	17	5.3	4.8	6.3	91	about 5.3 μg/ml	about 4.5 μg/ml	about 17 μg/ml	about 5.3 μg/ml	about 4.8 μg/ml	about 6.3 μg/ml	
CCCCCCN(Cc1c2ccccc2c(Cl)c2ccccc12)C(=O)C(N)CCCCN.O=C(O)C(F)(F)F (centres unmarked) [ACK-6, Lys-N-hexyl-10-Aminomethyl-9-chloroanthracene trifluoroacetate]	2.4	3.3	~1.6 µg/mL	1.6	16	5.2	3.5	2.8	82	~2.4 µg/mL	~3.3 µg/mL	~16 µg/mL	~5.2 µg/mL	~3.5 µg/mL	~2.8 µg/mL	
CCCCCCCCN(Cc1c2ccccc2c(Cl)c2ccccc12)C(=O)[C@@H](N)CCCCN.O=C(O)C(F)(F)F [ACK-8, Lys-N-octyl-10-Aminomethyl-9-chloroanthracene trifluoroacetate]	2.2	2.5	~3.8 µg/mL	3.8	4.3	3	2.9	2.3	64	~2.2 µg/mL	~2.5 µg/mL	~4.3 µg/mL	~3 µg/mL	~2.9 µg/mL	~2.3 µg/mL	
CCCCN(Cc1ccccc1)C(=O)[C@@H](N)CCCCN.O=C(O)C(F)(F)F [BCK-4, Lys-N-butyl-1-Aminomethylbenzene trifluoroacetate]	>100	>100		>100	>100		>100	>100								>1000
CCCCCCN(Cc1ccccc1)C(=O)[C@@H](N)CCCCN.O=C(O)C(F)(F)F [BCK-6, Lys-N-hexyl-1-Aminomethylbenzene trifluoroacetate]	>100	>100		>100	>100		>100	>100								>1000
CCCCN(Cc1ccc(-c2ccccc2)cc1)C(=O)[C@@H](N)CCCCN [Compound 6a, Lys-N-Butyl-1-Aminomethylbiphenyl]	60															
CCCCCCN(Cc1ccc(-c2ccccc2)cc1)C(=O)[C@@H](N)CCCCN [Compound 6b, Lys-N-hexyl-1-Aminomethylbiphenyl]	7.5															
CCCCCCCCN(Cc1ccc(-c2ccccc2)cc1)C(=O)C(N)CCCCN (centres unmarked) [Compound 6c, Lys-N-octyl-1-Aminomethylbiphenyl]	1.3															
CCCCCCCCN(Cc1c2ccccc2cc2ccccc12)C(=O)[C@@H](N)CCCCN.O=C(O)C(F)(F)F [Compound 8c, Lys-N-octyl-9-Aminomethylanthracene trifluoroacetate]	2.2							3.6								42
